From patent US9580487B2, “Method of treating stomach or bowel-related disorders by administering glucagon-like-peptide-2 (GLP-2) analogues” (Zealand Pharma A/S, priority 2005, dated 2017)

What was measured:
[1] = system: male Sprague Dawley rats treated with indomethacin; assay: Indomethacin-induced small intestinal ulcers (model of Crohn's disease), extent of ulceration; format: in vivo; conditions: prednisolone 10 mg/kg vs indomethacin alone
Procedure: FIG. 13 is a graph illustrating the effect of compound 1848 (SEQ ID NO:36) on small intestinal ulcers induced by indomethacin. Male Sprague Dawley rats were treated with vehicle (saline; group 1) or indomethacin (7 mg/kg s.c., once daily for two days; groups 2-7). Indomethacin was given alone (group 2) or in combination with prednisolone (10 mg/kg s.c.; group 3) or with 8, 40, or 200 nmol/kg compound 1848 (SEQ ID NO:36) s.c. […] (groups 4-6). Finally, one group of rats was treated with combination treatment of prednisolone (10 mg/kg s.c.) and compound 1848 (SEQ ID NO:36), 200 nmol/kg s.c. once daily (group 7). Treatment with compound 1848 (SEQ ID NO:36) was initiated 4 days prior to indomethacin and continued during the two days of indomethacin treatment. On day 3, rats were sacrificed and upon necropsy, the small intestine was gently flushed with 10% formalin and filled with formalin for a period of 5 minutes, after which the intestine was cut open along the antimesenteric margin and suspended on a polypropylene plate. Any remaining intestinal contents were carefully removed with a pair of tweezers. After fixation for another 24 hours at room temperature, the tissue was rinsed in Milli-Q water and surface-stained for 20 minutes with Alcian Green 3BX (Chroma) prepared as a 0.5% solution in 1% acetic acid (Bie & Berntsen). After removal of excess staining solution with Milli-Q water the tissue preparation was transferred to 70% alcohol and analyzed using a stereomicroscope at low magnification (×7). Starting at the pylorus, the small intestine was scanned and the shape (circular vs. linear) and size (circular ulcers: diameter, linear ulcers: length×width) of all ulcers was measured using a standard ruler (resolution: 0.5 mm). An ulcer was defined as an area, which lacked epithelial surface. In healing ulcers only the area that still lacked epithelial surface was regarded an ulcer even if the villus structure was still missing in a larger area. All analysis was performed in a blinded manner. […] Treatment with prednisolone caused a significant reduction in the extent of ulceration by app. 29%. […] Values are means±SEM. * P<0.05 vs. indomethacin (group 2). ^#P<0.05 vs. prednisolone (group 3).
Crohn's disease is a chronic disease that causes episodic inflammation of the small intestine. The effect of the GLP-2 analogue 1848 (SEQ ID NO:36) on small intestinal inflammation in an indomethacin-induced model of Crohn's disease was investigated. We have previously shown that administration of indomethacin (s.c, once daily for 2 days) induces small intestinal inflammation characterized by ulcerations and, increases in the pro-inflammatory cytokine, tumour necrosis factor alpha (TNF-α).
To determine the effect of ZP1848 (SEQ ID NO:36) on ulceration 1848 (SEQ ID NO:36) (8, 40 and 200 nmol/kg, s.c, twice daily (9:00 and 16:00)) was given for 4 days prior to the first dose of indomethacin and for an additional two days together with indomethacin. The corticosteroid, prednisolone (10 mg/kg, p.o) was used as a positive control since corticosteroids are commonly used in the treatment of active inflammation in Crohn's disease. In addition a group of animals were given both 1848 (SEQ ID NO:36) (200 nmol/kg) and prednisolone to determine the effects of a combination treatment. Twenty four hours after the last dose of 1848 (SEQ ID NO:36) had been given the animals were sacrificed the small intestine was gently flushed clean and fixed. To determine the extent of ulceration the intestine was cut open along the antimesenteric margin, suspended on a polypropylene plate and surface-stained with Alcian Green 3BX. Starting at the pylorus, the small intestine was scanned and the shape (circular vs. linear) and size (circular ulcers: diameter, linear ulcers: length×width) of all ulcers was measured using a standard ruler (resolution: 0.5 mm). An ulcer was defined as an area, which lacked epithelial surface. […]

[2] = system: TNF-α; assay: Small intestinal tissue content of TNF-α (ELISA) in rats with indomethacin-induced inflammation; format: in vivo; conditions: prednisolone 10 mg/kg alone
Procedure: Male Sprague Dawley rats were treated with vehicle (saline; group 1) or indomethacin (7 mg/kg s.c., once daily for two days; groups 2-7). […] On day 3, rats were sacrificed and upon necropsy, the small intestine was divided into three segments of equal length corresponding to 1) duodenum and proximal jejunum, 2) mid and distal jejunum and 3) ileum. Samples were immediately snap-frozen in liquid N2 and stored at −80° C. until analysis. Homogenization and extraction of cellular protein from small intestinal segments was performed according to the following procedure: Tissue segments were weighed and added a volume of 1.5 ml per gram tissue ice-cold (4° C.) extraction buffer (10 mM Tris-HCl (Sigma) and 1 mM EDTA (J. T. Baker), (pH 7.6) with 0.05% sodium azide (Fluka), 1% Tween-80 (Fluka), 2 mM phenylmethylsulfonyl fluoride (PMSF, Fluka) and 1 μg/ml of each of the protease inhibitors aprotinin, leupeptin and pepstatin A (Roche Diagnostics)). The tissue was cut into small bits with a pair of scissors and homogenized three times for 20 seconds (IKA UltraTurrax T25 homogenizer, Janke & Kunkel) at 9500 rpm with intermittent cooling on ice for 30 seconds. The homogenate was centrifuged at 20.000×g for 30 minutes at 4° C., the supernatant was collected and stored at −20° C. until analysis for TNF-α small intestinal protein extractions were analyzed for TNF-α using a commercially available ELISA kit according to the manufacturer's instructions (Rat Tumor Necrosis Factor-α UltraSensitive ELISA kit, Biosource International Inc.). The assay has a detection limit of 0.7 pg/ml. Protein extractions were analyzed for total protein content using a commercially available assay (DC protein assay, Bio-Rad Laboratories Ltd.). Small intestinal tissue levels of TNF-α were expressed relative to total protein. […] Values are means±SEM. * P<0.05 vs. indomethacin (group 2).
At sacrifice, however the small intestine was separated into three segments of equal length (proximal, mid and distal). TNF-α concentrations were measured in each of the individual segments using a commercially available ELISA kit.

[3] = in vivo; cited from earlier work
[4] = system: colonic neoplasms in mice; conditions: cited from earlier work

| Compound | Reduction in the extent of ulceration [1] [%] | Tissue levels of TNF-α, all 3 segments [2] | half life [3] | Growth of colonic neoplasms [4] |
| --- | --- | --- | --- | --- |
| C[C@]12C=CC(=O)C=C1CC[C@@H]1[C@@H]2[C@@H](O)C[C@@]2(C)[C@H]1CC[C@]2(O)C(=O)CO [prednisolone, reference compound] | ~29 | did not significantly affect tissue levels of TNF-α | – | – |
| H-His-Ala-Asp-Gly-Ser-Phe-Ser-Asp-Glu-Met-Asn-Thr-Ile-Leu-Asp-Asn-Leu-Ala-Ala-Arg-Asp-Phe-Ile-Asn-Trp-Leu-Ile-Gln-Thr-Lys-Ile-Thr-Asp-OH [GLP-2] | – | – | about 7 minutes | accelerate the growth of colonic neoplasms in mice |
